Experiments:
PPARγ [1] = assay: Expression of PPARγ at protein level, SDS-PAGE and immunoblot in 3T3-L1 cells; type: cell-based, mouse; settings: 3T3-L1, compared with β-actin; FIGS. 17 and 18
Method: (§1) After the 313-L1 cells were treated with the samples (Red-dog A & Red-dog B, Compounds 1 & 2) at regular intervals of two days in the same manner as in the adipocyte differentiation method, they were washed twice with PBS and lyzed in RIPA buffer (50 mM Tris-HCl, pH 8.0, 150 mM sodium chloride, 1% NP-40, 0.5% sodium dexycholate, 0.1% sodium dodecyl sulfate, protease inhibitor). Proteins harvested by centrifugation at 13,000 rpm for 30 min were separated on 8% SDS-PAGE gel and then transferred onto a membrane. The membrane was blocked with TBST containing 5% skim milk and reacted with a primary antibody (PPARγ, C/EBPα) (Santa Cruz) and then with a secondary antibody (Santa Cruz), followed by color development with an ECL reagent (Thermo scientific) to compare the expression level of PPARγ and C/EBPα with that of β-actin.

PPARγ [2] = target: T1, PPARγ (Homo sapiens, UniProt P37231); assay: PPARγ transcriptional activity, PPRE luciferase reporter in HEK 293T cells; type: cell-based; settings: 24 hours, alone or with 10 μM troglitazone, FIGS. 9 and 10
T1 construct: expressed in transfected cells; host or cells: HEK 293T
T1 sequence (P37231 1-505): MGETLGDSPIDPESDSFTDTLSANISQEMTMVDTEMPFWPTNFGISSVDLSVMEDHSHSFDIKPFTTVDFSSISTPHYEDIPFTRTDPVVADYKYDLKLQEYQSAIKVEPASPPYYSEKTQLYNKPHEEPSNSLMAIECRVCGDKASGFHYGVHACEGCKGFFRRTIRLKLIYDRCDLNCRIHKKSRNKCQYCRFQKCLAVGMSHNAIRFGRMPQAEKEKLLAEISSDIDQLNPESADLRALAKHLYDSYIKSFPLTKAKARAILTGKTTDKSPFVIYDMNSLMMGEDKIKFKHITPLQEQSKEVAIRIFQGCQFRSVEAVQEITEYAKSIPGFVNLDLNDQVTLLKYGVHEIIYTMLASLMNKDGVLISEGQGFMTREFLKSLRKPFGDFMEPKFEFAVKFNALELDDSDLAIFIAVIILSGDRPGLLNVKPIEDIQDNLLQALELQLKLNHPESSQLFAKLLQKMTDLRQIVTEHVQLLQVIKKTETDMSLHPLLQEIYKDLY
Method: HEK 293T cells were co-transfected with a recombinant pGL3-basic luciferase expression vector (Promega) carrying a PPRE (PPARγ response element) gene and a PPARγ gene and a pRL-SV-40 plasmid (Promega) carrying a Renilla luciferase cDNA as a control reporter. One day after transfection, the cells were treated for 24 hours with predetermined concentrations of the samples (Red-dog A, Red-dog B and Compounds 1 & 2) alone or in combination with 10 μM troglitazone, a ligand to PPARγ. The inhibitory activity of the samples against the transcription factor PPARγ was determined by measuring the expression levels of luciferase.

C/EBRα [3] = assay: Expression of C/EBRα at gene level, real-time PCR in differentiated 3T3-L1 cells; type: cell-based, mouse; settings: 3T3-L1 differentiated 8 days, GAPDH control, FIGS. 11 to 16
Method: (§2) During adipocyte differentiation, expression levels of PPARγ, C/EBRα and ADD1/SREBP1c are increased.
(§3) After being treated with predetermined concentrations of the samples (Red-dog A, Red-dog B and Compounds 1 & 2) in the same manner as in Experimental Example 1-2, the cells were induced to differentiate into adipocytes for 8 days. The expression levels of PPARγ, C/EBRα and ADD1/SREBP1c were analyzed using real-time PCR. The 3T3-L1 cells were washed twice with PBS after differentiation for 8 days and the cell pellets were used for RNA isolation using an RNA prep kit (Qiagen). cDNA was synthesized from 1 μg of the isolated RNA before real-time PCR using SYBR green (Takara) and the primers given in Table 1, below. As a control gene, GAPDH was used. In this regard, the cDNA synthesized from 1 μg of RNA was diluted 1/50 to a volume of 5 μL and mixed with 0.5 μL of each of 10 pmole primer, 10 μL of 2XSYBR green, and […] of distilled water to give a PCR mix with a total volume of 20 μL. Real-time PCR started with denaturation at 95° C. for 30 sec, followed by 40 thermal cycles of denaturation at 95° C. for 5 sec, annealing for 60° C. for 15 sec and extension at 72° C. for 10 sec. The melt curve consisted of 80 melt cycles, starting at 55° C. to 95° C. with increments of 0.5° C. per cycle. Desired fluorescent signals were detected (data analysis was done with Bio-Rad MyiQ program).

resistin = assay: Anti-insulin resistance assay: resistin expression at gene level in differentiated 3T3-L1 cells; type: cell-based, mouse; settings: cells differentiated for 8 days, FIGS. 19 to 24
Method: (§4) To examine whether the samples (Red-dog A & Red-dog B, compounds 1 & 2) are effective as anti-insulin resistance agents, expression levels of resistin, aP2 and Fas in the cells that had been differentiated for 8 days as in Experimental Example 1 were analyzed using the primers of Table 2, below.

PPARγ [4] = assay: Expression of PPARγ at gene level, real-time PCR in differentiated 3T3-L1 cells; type: cell-based, mouse; settings: 3T3-L1 differentiated 8 days, GAPDH control, FIGS. 11 to 16
Method: as §2, §3

aP2 = assay: Anti-insulin resistance assay: aP2 expression at gene level in differentiated 3T3-L1 cells; type: cell-based, mouse; settings: cells differentiated for 8 days, FIGS. 19 to 24
Method: as §4

ADD1/SREBP1c = assay: Expression of ADD1/SREBP1c at gene level, real-time PCR in differentiated 3T3-L1 cells; type: cell-based, mouse; settings: 3T3-L1 differentiated 8 days, GAPDH control, FIGS. 11 to 16
Method: as §2, §3

Fas = assay: Anti-insulin resistance assay: Fas expression at gene level in differentiated 3T3-L1 cells; type: cell-based, mouse; settings: cells differentiated for 8 days, FIGS. 19 to 24
Method: as §4

[5] = system: mouse preadipocyte 3T3-L1; assay: Adipocyte differentiation of 3T3-L1 preadipocytes (MDI induction, Oil Red O staining, absorbance at 510 nm); type: cell-based; settings: FIGS. 3 to 8; for differentiation of preadipocytes into adipocytes: 3T3-L1, MDI-induced, day 8, Oil Red O; for lipid accumulation of adipocytes: 3T3-L1, Oil Red O lipid contents
Method: The mouse preadipocyte 3T3-L1 was cultured at 37° C. in 10% BCS DMEM under a 5% CO2 condition.
3T3-L1 preadipocytes were seeded at a density of 5×10^4 cells/well into 24-well plates. After being grown to 100% confluency, the cells were incubated for an additional two days. Then, the preadipocytes were induced to differentiate into adipcytes in the presence of MDI (0.5 mM 3-isobutyl-1-methylxanthine (IBMX), 1 μM dexamethasone, 1 μg/ml insulin) in 10% FBS DMEM. After incubation for 48 hours in this medium, the cells were cultured for two days in 10% FBS DMEM containing 1 μg/ml insulin. Subsequently, the cells were cultured for four days in 10% FBS DMEM, with replacement of the medium with a fresh one every two days. During adipocyte differentiation, the cells were treated with predetermined concentrations of the samples. On day 8 at which differentiation was completed, observations were made of the differentiation of the cells. In this connection, the adipose differentiation was qualitatively analyzed with Oil Red 0 staining under an optical microscope and quantitatively analyzed by measuring absorbance at 510 nm.

C/EBRα [6] = assay: Expression of C/EBRα at protein level, SDS-PAGE and immunoblot in 3T3-L1 cells; type: cell-based, mouse; settings: 3T3-L1, compared with β-actin; FIGS. 17 and 18
Method: as §1

Row | Structure (SMILES) | expression of PPARγ at protein level (PPARγ [1]) | transcriptional activity of PPARγ (PPARγ [2]) | expression of C/EBRα at the genetic level (C/EBRα [3]) | expression of resistin at the genetic level (resistin) | expression of resistin at the genetic level (resistin; listed as Chemical Formula 1) | expression of PPARγ at the genetic level (PPARγ [4]) | expression of aP2 at the genetic level (aP2) | expression of aP2 at the genetic level (aP2; listed as Chemical Formula 1) | expression of ADD1/SREBP1c at the genetic level (ADD1/SREBP1c) | expression of Fas at the genetic level (Fas) | expression of Fas at the genetic level (Fas; listed as Chemical Formula 1) | differentiation of preadipocytes into adipocytes [5] | lipid accumulation of adipocytes [5] | expression of C/EBRα at protein level (C/EBRα [6]) | expression of resistin at the genetic level (resistin; listed as Chemical Formula 2) | expression of aP2 at the genetic level (aP2; listed as Chemical Formula 2) | expression of Fas at the genetic level (Fas; listed as Chemical Formula 2)
1 | COc1cc(OC2OC(CO)[C@@H](O)[C@H](O)[C@@H]2O)ccc1O (stereo partly drawn) [Compound 1, methoxy-hydroquinone-4-β-D-glucopyranoside] | inhibited the expression of PPARγ and C/EBRα in dose-dependent manners | inhibited the transcriptional activity of PPARγ in a dose-dependent manner | inhibit the expression of PPARγ, C/EBRα and ADD1/SREBP1c in dose-dependent manners | inhibit the expression of resistin, aP2 and Fas in dose-dependent manners | significantly suppressed | inhibit the expression of PPARγ, C/EBRα and ADD1/SREBP1c in dose-dependent manners | inhibit the expression of resistin, aP2 and Fas in dose-dependent manners | significantly suppressed | inhibit the expression of PPARγ, C/EBRα and ADD1/SREBP1c in dose-dependent manners | inhibit the expression of resistin, aP2 and Fas in dose-dependent manners | significantly suppressed | inhibited the differentiation of preadipocytes into adipocytes in dose-dependent manners | inhibitory activities | inhibited the expression of PPARγ and C/EBRα in dose-dependent manners |  |  | 
2 | CCCCCC(O)C(O)/C=C/C(O)CCCCCCCC(=O)O (stereo not shown) [Compound 2, 9,12,13-trihydroxy-10(E)-octadecenoic acid] | inhibited the expression of PPARγ and C/EBRα in dose-dependent manners | inhibited the transcriptional activity of PPARγ in a dose-dependent manner | inhibit the expression of PPARγ, C/EBRα and ADD1/SREBP1c in dose-dependent manners | inhibit the expression of resistin, aP2 and Fas in dose-dependent manners |  | inhibit the expression of PPARγ, C/EBRα and ADD1/SREBP1c in dose-dependent manners | inhibit the expression of resistin, aP2 and Fas in dose-dependent manners |  | inhibit the expression of PPARγ, C/EBRα and ADD1/SREBP1c in dose-dependent manners | inhibit the expression of resistin, aP2 and Fas in dose-dependent manners |  | inhibited the differentiation of preadipocytes into adipocytes in dose-dependent manners | inhibitory activities | inhibited the expression of PPARγ and C/EBRα in dose-dependent manners | significantly suppressed | significantly suppressed | significantly suppressed

From patent US20130102554A1, “COMPOSITION FOR TREATMENT OF OBESITY USING WHEAT BRAN EXTRACT OR ACTIVE INGREDIENT ISOLATED THEREFROM” (priority 2009, published 2013)
